Test results reported in patent EP0823908B1, “PYRIDO[2,3-d]PYRIMIDINES FOR INHIBITING PROTEIN TYROSINE KINASE MEDIATED [sequence] PROLIFERATION” (Warner-Lambert Company LLC, priority 1995, dated 1996).
pIC50: −log10 of the molar value. Like-named read-outs stand apart in the source and are kept apart here.

What was measured:
[1] = molecular target: T1, mouse PDGF-β receptor tyrosine kinase (Mus musculus, UniProt P05622); assay: PDGF receptor tyrosine kinase assay (32P incorporation into glutamate-tyrosine co-polymer); format: biochemical; settings: for pIC50: read-out: PDGFr-TK IC50
T1 construct: amplify a fragment of DNA that codes for the intracellular tyrosine kinase domain; made in house; host or cells: SF9 insect cells (baculovirus)
T1 sequence (P05622 599-961 limits assumed): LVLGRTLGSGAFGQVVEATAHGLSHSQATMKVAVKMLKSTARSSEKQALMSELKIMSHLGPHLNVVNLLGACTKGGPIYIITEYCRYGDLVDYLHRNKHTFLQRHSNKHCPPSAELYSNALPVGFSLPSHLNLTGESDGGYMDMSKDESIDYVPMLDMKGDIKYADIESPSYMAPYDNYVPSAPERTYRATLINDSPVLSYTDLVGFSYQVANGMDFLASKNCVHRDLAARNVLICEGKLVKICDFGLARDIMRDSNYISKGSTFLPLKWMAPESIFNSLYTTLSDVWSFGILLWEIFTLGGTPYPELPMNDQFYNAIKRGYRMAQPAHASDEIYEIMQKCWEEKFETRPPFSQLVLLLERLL
Summary of the method: (§1)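 32P transfer from γ32P-ATP (50 µM ATP) to poly(Glu,Tyr) 4:1 was measured over 10 min at 25°C and counted after TCA precipitation onto filters, minus the no-enzyme background. Enzyme was baculovirus/SF9 lysate of the kinase domain, preincubated 10 min with inhibitor in Hepes pH 7.0, MnCl2, vanadate.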

[2] = molecular target: T2, human FGF-1 (flg) receptor tyrosine kinase (Homo sapiens, UniProt P11362); assay: FGF receptor tyrosine kinase assay (32P incorporation into glutamate-tyrosine co-polymer); format: biochemical
T2 construct: amplify a fragment of DNA that codes for the intracellular tyrosine kinase domain; made in house; host or cells: SF9 insect cells (baculovirus)
T2 sequence (P11362 478-767 limits assumed): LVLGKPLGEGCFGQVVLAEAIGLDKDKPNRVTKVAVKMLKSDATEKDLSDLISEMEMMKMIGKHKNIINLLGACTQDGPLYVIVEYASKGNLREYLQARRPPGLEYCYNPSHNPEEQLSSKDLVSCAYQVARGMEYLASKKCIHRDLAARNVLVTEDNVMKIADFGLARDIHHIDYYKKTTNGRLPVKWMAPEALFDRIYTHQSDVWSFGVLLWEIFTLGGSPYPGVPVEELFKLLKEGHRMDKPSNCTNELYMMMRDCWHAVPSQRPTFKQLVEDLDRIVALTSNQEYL
Summary of the method: as §1

[3] = molecular target: T3, C-src kinase (Homo sapiens, UniProt P12931); assay: C-src kinase assay (poly GluTyr substrate); format: biochemical; settings: for pIC50: read-out: C-src TK IC50; for inhibition at 50 µM: read-out: C-src TK % Inhibition at 50 µM
T3 construct: made in house; host or cells: baculovirus infected insect cells
T3 sequence (P12931 whole entry): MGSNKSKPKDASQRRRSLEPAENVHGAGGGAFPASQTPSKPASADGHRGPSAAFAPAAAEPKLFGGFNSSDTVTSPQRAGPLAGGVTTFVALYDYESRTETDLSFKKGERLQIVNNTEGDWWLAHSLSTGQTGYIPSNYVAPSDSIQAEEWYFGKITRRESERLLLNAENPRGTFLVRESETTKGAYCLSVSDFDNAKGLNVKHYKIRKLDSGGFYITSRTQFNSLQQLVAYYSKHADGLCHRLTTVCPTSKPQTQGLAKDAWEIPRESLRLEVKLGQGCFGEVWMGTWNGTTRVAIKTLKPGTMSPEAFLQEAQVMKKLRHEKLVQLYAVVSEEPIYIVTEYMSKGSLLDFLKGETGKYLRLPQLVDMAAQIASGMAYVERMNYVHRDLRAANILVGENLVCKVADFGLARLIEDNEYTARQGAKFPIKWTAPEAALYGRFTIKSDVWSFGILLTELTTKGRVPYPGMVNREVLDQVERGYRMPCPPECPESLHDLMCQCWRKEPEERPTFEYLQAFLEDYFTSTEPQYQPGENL

[4] = molecular target: T4, Human EGF receptor tyrosine kinase (Homo sapiens, UniProt P00533); assay: EGF receptor tyrosine kinase enzyme assay (substrate peptide phosphorylation); format: biochemical; settings: for pIC50: read-out: EGF-FL IC50; for inhibition at 50 µM: read-out: EGF-FL % Inhibition at 50 µM
T4 construct: Human EGF receptor tyrosine kinase was isolated from A431 epidermoid carcinoma cells; endogenous in cells; host or cells: A431 epidermoid carcinoma cells
T4 sequence (P00533 25-1210): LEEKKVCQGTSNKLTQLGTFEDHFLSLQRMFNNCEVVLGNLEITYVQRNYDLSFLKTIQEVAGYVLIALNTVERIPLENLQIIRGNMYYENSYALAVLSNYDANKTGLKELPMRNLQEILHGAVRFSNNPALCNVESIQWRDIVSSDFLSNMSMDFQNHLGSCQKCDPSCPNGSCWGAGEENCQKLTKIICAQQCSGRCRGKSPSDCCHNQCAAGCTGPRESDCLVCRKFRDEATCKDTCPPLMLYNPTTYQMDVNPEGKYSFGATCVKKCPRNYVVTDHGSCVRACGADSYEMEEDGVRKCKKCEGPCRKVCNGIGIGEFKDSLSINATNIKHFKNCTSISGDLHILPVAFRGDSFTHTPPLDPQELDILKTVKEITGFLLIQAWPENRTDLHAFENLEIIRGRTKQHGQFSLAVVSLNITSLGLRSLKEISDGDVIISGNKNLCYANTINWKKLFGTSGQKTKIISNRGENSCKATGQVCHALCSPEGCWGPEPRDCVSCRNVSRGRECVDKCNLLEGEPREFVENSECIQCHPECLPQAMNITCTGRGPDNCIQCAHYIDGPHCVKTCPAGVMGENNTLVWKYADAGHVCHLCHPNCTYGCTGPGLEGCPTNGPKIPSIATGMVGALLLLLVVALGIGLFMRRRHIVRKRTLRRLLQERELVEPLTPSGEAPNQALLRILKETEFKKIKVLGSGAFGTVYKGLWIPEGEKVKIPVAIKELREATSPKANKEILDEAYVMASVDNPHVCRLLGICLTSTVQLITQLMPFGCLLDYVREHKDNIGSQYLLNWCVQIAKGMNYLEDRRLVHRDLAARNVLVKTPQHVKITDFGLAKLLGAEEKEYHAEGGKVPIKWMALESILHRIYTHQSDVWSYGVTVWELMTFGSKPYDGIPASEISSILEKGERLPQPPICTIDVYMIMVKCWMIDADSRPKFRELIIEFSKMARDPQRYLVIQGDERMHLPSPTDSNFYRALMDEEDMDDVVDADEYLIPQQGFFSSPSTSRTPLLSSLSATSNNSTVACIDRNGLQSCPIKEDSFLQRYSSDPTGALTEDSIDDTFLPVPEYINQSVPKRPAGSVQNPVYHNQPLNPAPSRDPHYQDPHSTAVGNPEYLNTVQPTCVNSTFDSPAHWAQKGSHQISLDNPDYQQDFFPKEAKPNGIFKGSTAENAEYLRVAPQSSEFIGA
Method: Human EGF receptor tyrosine kinase was isolated from A431 epidermoid carcinoma cells by the following methods. Cells were grown in roller bottles in 50% Dulbecco's Modified Eagle medium and 50% HAM F-12 nutrient media (Gibco) containing 10% fetal calf serum. Approximately 10^9 cells were lysed in two volumes of buffer containing 20 mM 2-(4N-[2-hydroxymethyl]-piperazin-1-yl)ethanesulfonic acid, pH 7.4, 5 mM ethylene glycol bis(2-aminoethyl ether) N,N,N',N'-tetraacetic acid, 1% Triton X-100, 10% glycerol, 0.1 mM sodium orthovanadate, 5 mM sodium fluoride, 4 mM pyrophosphate, 4 mM benzamide, 1 mM dithiothreitol, 80 µg/mL aprotinin, 40 µg/mL leupeptin, and 1 mM phenylmethylsulfonyl fluoride. […] Contaminating proteins were washed from the resin with 1 M NaCl in equilibration buffer, and the enzyme was eluted with 0.5 M N-acetyl-1-D-glucosamine in equilibration buffer.
The reaction was terminated by the addition of 2 mL of 75 mM phosphoric acid and passed through a 2.5-cm phosphocellulose filter disc to bind the peptide. The filter was washed 5 times with 75 mM phosphoric acid and placed in a vial along with 5 mL of scintillation fluid (Ready gel Heckman).

[5] = test system: HCT-8; assay: Soft agar colony formation, human colon adenocarcinoma cells; format: cell-based; settings: HCT-8, 336 h, read-out: Inhibition of Human Colon Adenocarcinoma IC50, HCT-8
Method: (§2) Three such human cell lines were identified as HCT-8, SW-620, and HT-29. In a typical assay, the cells are suspended in 0.3% soft agar containing an invention compound at various concentration levels, and are plated into six-well plates, each plate containing a 1% agar plug. The cell plates are incubated at 37°C in a humidified carbon dioxide (5%) incubator, generally for 2 weeks. At the end of the incubation period, colonies of cells are detected by staining the wells with 1 mg/mL of p-iodonitrotetrazolium violet. The cells are counted on an optical colony counter. […] TABLE III. Inhibition of Human Colon Adenocarcinoma IC50 (µM)

[6] = test system: SW-620; assay: as above; format: cell-based; settings: SW-620, 336 h, colony formation in 0.3% soft agar, generally 2 weeks, read-out: Inhibition of Human Colon Adenocarcinoma IC50, SW-620
Method: as §2

[7] = test system: HT-29; assay: as above; format: cell-based; settings: HT-29, 336 h, colony formation in 0.3% soft agar, generally 2 weeks, read-out: Inhibition of Human Colon Adenocarcinoma IC50, HT-29
Method: as §2

[8] = colony formation in 0.3% soft agar, generally 2 weeks

pIC50 [1]	pIC50 [3]	pIC50 [4]	pIC50 ([2]; read-out: FGFr-TK IC50)	pIC50 [6]	pIC50 [5, 8]	pIC50 [7]	inhibition at 50 µM [3] [%]	inhibition at 50 µM [4] [%]	inhibition at 50 µM ([1]; read-out: PDGFr-TK % Inhibition at 50 µM) [%]	SMILES	pIC50 [2]	pIC50 [5]
5.77	7.15		5.52	5.96						Cn1c(=O)c(-c2c(Cl)cccc2Cl)cc2cnc(Nc3ccc(Cl)cc3)nc21 [Example 56, 2-(4-Chlorophenylamino)-6-(2,6-dichlorophenyl)-8-methyl-8H-pyrido[2,3-d]pyrimidin-7-one]		
6.36	7.30	7.05	6.19	6.28	6.60	6.13				Cn1c(=O)c(-c2c(Cl)cccc2Cl)cc2cnc(Nc3ccc4c(c3)OCO4)nc21 [Example 57, 2-(Benzo[1,3]dioxol-5-ylamino)-6-(2,6-dichlorophenyl)-8-methyl-8H-pyrido[2,3-d]pyrimidin-7-one]		
6.00		6.85	5.98		6.00					Cc1ccc(Nc2ncc3cc(-c4c(Cl)cccc4Cl)c(=O)n(C)c3n2)cc1 [Example 63, 6-(2,6-Dichlorophenyl)-8-methyl-2-p-tolylamino-8H-pyrido[2,3-d]pyrimidin-7-one]		
6.23	7.10	6.92	6.67			5.95				CCn1c(=O)c(-c2c(Cl)cccc2Cl)cc2cnc(Nc3ccccc3)nc21 [Example 69, 6-(2,6-Dichloropherlyl)-8-ethyl-2-pherlylamino-8H-pyrido[2,3-d]pyrimidin-7-one]		
6.32	7.15		6.96			5.46				CCn1c(=O)c(-c2c(Cl)cccc2Cl)cc2cnc(NCCCN3CCN(C)CC3)nc21 [Example 70, 6-(2,6-Dichlorophenyl)-8-ethyl-2-[3-(4-methyl-piperazin-1-yl)-propylamino]-8H-pyrido[2,3-d]pyrimidin-7-one]		
6.45		7.68	6.85				0			CCn1c(=O)c(-c2c(Cl)cccc2Cl)cc2cnc(Nc3ccc(O)cc3)nc21 [Example 75, 6-(2,6-Dichlorophenyl)-8-ethyl-2-(4-hydroxyphenylamino)-8H-pyrido[2,3-d]pyrimidin-7-one]		
5.62		6.52	6.33				33			CCOc1ccc(Nc2ncc3cc(-c4c(Cl)cccc4Cl)c(=O)n(CC)c3n2)cc1 [Example 76, 6-(2,6-Dichlorophenyl)-2-(4-ethoxyphenylamino)-8-ethyl-8H-pyrido[2,3-d]pyrimidin-7-one]		
5.95	7.72	7.03	6.91							CCn1c(=O)c(-c2c(Cl)cccc2Cl)cc2cnc(Nc3ccc(OC)c(OC)c3)nc21 [Example 77, 6-(2,6-Dichlorophenyl)-2-(3,4-dimethoxyphenylamino)-8-ethyl-8H-pyrido[2,3-d]pyrimidin-7-one]		
5.77		7.01	6.84				46			CCn1c(=O)c(-c2c(Cl)cccc2Cl)cc2cnc(Nc3cc(OC)c(OC)c(OC)c3)nc21 [Example 78, 6-(2,6-Dichlorophenyl)-8-ethyl-2-(3,4,5-trimethoxyphenylamino)-8H-pyrido[2,3-d]pyrimidin-7-one]		
5.93	7.72	7.23								COc1cc(Nc2ncc3cc(-c4c(Cl)cccc4Cl)c(=O)n(C)c3n2)cc(OC)c1 [Example 83, 6-(2,6-Dichlorophenyl)-2-(3,5-dimethoxypherlylamino)-8-methyl-8H-pyrido[2,3-d]pyrimidin-7-one]	6.48	
6.41	7.64	6.20	6.60							COC(=O)Cc1ccc(Nc2ncc3cc(-c4c(Cl)cccc4Cl)c(=O)n(C)c3n2)cc1 [Example 84, {4-[6-(2,6-Dichlorophenyl)-8-methyl-7-oxo-7,8-dihydro-pyrido[2,3-d]pyrimidin-2-ylamino]phenyl]-acetic acid, methyl ester]		
6.43	7.89	5.88	6.25							COc1ccc(Nc2ncc3cc(-c4c(Cl)cccc4Cl)c(=O)n(C)c3n2)cn1 [Example 85, 6-(2,6-Dichlorophenyl)-2-(6-methoxypyridin-3-ylamino)-8-methyl-8H-pyrido[2,3-d]pyrimidin-7-one]		
7.15	8.05	6.89	7.21							Cn1c(=O)c(-c2c(Cl)cccc2Cl)cc2cnc(Nc3ccc(CC(=O)O)cc3)nc21 [Example 86, {4-[6-(2,6-Dichlorophenyl)-8-methyl-7-oxo-7,8-dihydro-pyrido[2,3-d]pyrimidin-2-ylamino]phenyl}-acetic acid]		
6.85	8.22	6.82	6.96							Cn1c(=O)c(-c2c(Cl)cccc2Cl)cc2cnc(Nc3cccc(C(=O)O)c3)nc21 [Example 90, 3-[6-(2,6-Dichlorophenyl)-8-methyl-7-oxo-7,8-dihydro-pyrido[2,3-d]pyrimidin-2-ylamino]-benzoic acid]		
5.30	6.80		5.92					87		Nc1ncc2cc(-c3c(Cl)cccc3Cl)c(=O)n(Cc3ccccc3)c2n1 [Example 108, 2-Amino-8-benzyl-6-(2,6-dichlorophenyl)-8H-pyrido[2,3-d]pyrimidin-7-one]		
5.03	6.62	7.21	5.47							Nc1ncc2cc(-c3c(Cl)cccc3Cl)c(=O)n(Cc3cccc(Br)c3)c2n1 [Example 109, 2-Amino-8-(3-bromobenzyl)-6-(2,6-dichlorophenyl)-8H-pyrido[2,3-d]pyrimidin-7-one]		
	4.76		4.69					64	25	COC(=O)c1ccc(Cn2c(=O)c(-c3c(Cl)cccc3Cl)cc3cnc(N)nc32)cc1 [Example 110, 4-[2-Amino-6-(2,6-dichlorophenyl)-7-oxo-7H-pyrido[2,3-d]pyrimidin-8-yl-methyl]-benzoic acid methyl ester]		
5.50	7.39	5.85	5.82							Nc1ncc2cc(-c3c(Cl)cccc3Cl)c(=O)n(Cc3c(Cl)cccc3Cl)c2n1 [Example 111, 2-Amino-8-(2,6-dichlorobenzyl)-6-(2,6-dichlorophenyl)-8H-pyrido[2,3-d]pyrimidin-7-one]		
4.95	5.94		5.04					19		COc1ccc(Cn2c(=O)c(-c3c(Cl)cccc3Cl)cc3cnc(N)nc32)cc1 [Example 112, 2-Amino-6-(2,6-dichlorophenyl)-8-(4-methoxyhenzyl)-8H-pyrino[2,3-d]pyrimidin-7-one]		
5.29	5.96	5.49	5.48							Nc1ncc2cc(-c3c(Cl)cccc3Cl)c(=O)n(CCCc3ccccc3)c2n1 [Example 114, 2-Amino-6-(2,6-dichlorophenyl)-8-(3-phenylpropyl)-8H-pyrido[2,3-d]pyrimidin-7-one]		
6.82	5.86	6.74	5.71							CCn1c(=O)c(-c2ccccc2)cc2cnc(Nc3ccccc3)nc21 [Example 116, 8-Ethyl-6-phenyl-2-phenylamino-8H-pyrido[2,3-d]-pyrimidin-7-one]		

SMILES	pIC50 [1]	pIC50 [3]	pIC50 [4]	pIC50 ([2]; read-out: FGFr-TK IC50)	pIC50 [6]	pIC50 [5, 8]	pIC50 [7]	inhibition at 50 µM [3] [%]	inhibition at 50 µM [4] [%]	inhibition at 50 µM ([1]; read-out: PDGFr-TK % Inhibition at 50 µM) [%]	pIC50 [2]	pIC50 [5]
CN1CCN(CCCNc2ncc3cc(-c4c(Cl)cccc4Cl)c(=O)n(C)c3n2)CC1 [Example 38, 6-(2,6-Dichlorophenyl)-8-methyl-2-[3-(4-methylpiperazin-1-yl)-propylamino]-8H-pyrido[2,3-d]pyrimidin-7-one]	5.96	8.52	5.06								6.64	5.50
